Experimental data from patent US20250222038A1, “COLLAGEN MATRIX OR MEMBRANE WITH ANTIMICROBIAL PROPERTIES” (BIOCELLIX SPA, priority 2017, published 2025).

How the values were obtained:
[1] = system: Gram-positive bacteria (genus Staphylococcus); assay: Antibiotic sensitivity trial (inhibition halos on agar Müller-Hinton plate), Gram-positive isolate; assay type: cell-based; design: key to Plate 2 Sensitivity Level: Sensitive(S); Intermediate or Moderately sensitive (I); Resistant (R); conditions: Plate 2 = FIG. 2 right (Gram-positive bacteria); for Plate 2 (Gram+) (mm) inhibition halo: 18-24 hours at 37° C., average for three experiments; for Plate 2 Sensitivity Level: classified according to halo size
Protocol: (§1) In order to assert the antimicrobial capability of the collagen matrix or membrane, lab testing was carried out. Patient biopsies were collected from different types of infected wounds (neuropathic diabetic foot and biofilms). These samples were homogenized and set to culture for 24 hours to observe if there was bacterial growth or not. When bacterial growth is observed, colonies of these cultures were isolated, and with them, a test for microbial sensitivity to the action of nanometals was carried out. […] In order for this trial to be performed, antibiotics commonly used for eliminating these bacteria and at set concentrations were used as controls. […] In order to analyze the effectiveness of copper nanometals and its effectiveness as antimicrobial agents, three concentrations, 1, 5 and 10 mg/ml, were used. […] The trial was carried out as follows: On the surface of an agar Müller-Hinton plate, 100 μl of a bacterial solution (OD600: 0.4) were inoculated and seeded evenly for bacterial colonies to grow. Then, filter paper discs soaked with known concentrations of the different antibiotics are placed. The antibiotic will spread from the agar filter paper radially. The plate was incubated for 18-24 hours at 37° C., and then the growth inhibition halos are measured by interpreting them according to the available data in databases. The results are expressed as: Sensitive(S), Intermediate or Moderately sensitive (I) and Resistant (R). […] To determine the inhibition halo, the diameter surrounding the sense disc on which bacterial growth was not observed was measured on the plate seeded with bacteria in the presence of different antibiotics. In this case, the inhibition halo is expressed in mm. According to the halo size, the bacteria are classified as sensitive to the antibiotic action, resistant to the antibiotic action or of intermediate resistance to the antibiotic action (data that is published in databases). […] Additionally, the purpose of this trial is to rule out that the matrix alone presents some level of antimicrobial action, therefore, a copper-free matrix was used as control. […] Gram-negative bacteria belong to genus Proteus, and Gram-positive bacteria belong to genus Staphylococcus.

[2] = system: Gram-negative bacteria (genus Proteus); assay: Antibiotic sensitivity trial (inhibition halos on agar Müller-Hinton plate), Gram-negative isolate; assay type: cell-based; design: key to Plate 1 Sensitivity Level: Sensitive(S); Intermediate or Moderately sensitive (I); Resistant (R); conditions: Plate 1 = FIG. 2 left (Gram-negative bacteria); for Plate 1 (Gram-) (mm) inhibition halo: 18-24 hours at 37° C., average for three experiments; for Plate 1 Sensitivity Level: classified according to halo size
Protocol: as §1

| Compound | Plate 2 (Gram+) (mm) inhibition halo [1] [mm] | Plate 1 (Gram-) (mm) inhibition halo [2] [mm] | Plate 2 Sensitivity Level [1] | Plate 1 Sensitivity Level [2] |
| --- | --- | --- | --- | --- |
| O=C(O)c1cn(C2CC2)c2cc(N3CCNCC3)c(F)cc2c1=O [CIP, Ciprofloxacin] | 19 | 28 |  |  |
| CC[C@H]1OC(=O)[C@H](C)[C@@H](O[C@H]2C[C@@](C)(OC)[C@@H](O)[C@H](C)O2)[C@H](C)[C@@H](O[C@@H]2O[C@H](C)C[C@H](N(C)C)[C@H]2O)[C@](C)(OC)C[C@@H](C)C(=O)[C@H](C)[C@@H](O)[C@]1(C)O [CLR, Clarithromycin] | 18 | 15 | Sensitive | Intermediate |
| CC1(C)S[C@@H]2[C@H](NC(=O)[C@H](N)c3ccccc3)C(=O)N2[C@H]1C(=O)O [AM, Ampicillin] | 12 | 0 | Intermediate | Resistant |
